Values quoted from earlier work as cited in US20040166561A1, “Novel intein and uses thereof” (priority 2001, published 2004).

Legend:
[1] = tested on: RecA intein from Mycobacterium tuberculosis; conditions: 0.2 mM zinc (6parts/million); in vitro, splicing in trans
[2] = biological target: T1, naturally split DnaE intein from Synechocystis sp. PCC6803 (Synechocystis sp., UniProt P74750); conditions: 0.2 mM zinc (6parts/million); in vitro, splicing in trans
T1 construct: by the naturally split DnaE intein from Synechocystis sp; PCC6803

## [Zn+2] [zinc]
[1]
  inhibition of protein splicing: 90%
[2]
  inhibition of protein splicing: 90%
